Test results: US20040081972A1, “Novel physiologically active peptide and use thereof” (priority 2000, published 2004)

Experiments:
Type in all cases: cell-based
[1] = test system: spleen of an apoaequorin transgenic mouse; experiment: Intracellular calcium (aequorin luminescence) in spleen pieces of apoaequorin transgenic mouse; conditions: final concentration 8 μmol/l
[2] = test system: skull (cranial bone) of an apoaequorin transgenic mouse; experiment: Intracellular calcium (aequorin luminescence) in skull (cranial bone) pieces of apoaequorin transgenic mouse; conditions: final concentration 10 μmol/l
Description: (§1) In order to evaluate physiological activities of the peptides prepared in Example 1, the prepared peptides were allowed to act upon organs excised from the living body, and changes in the concentration of an intracellular signal transduction substance in cells constituting the organs were measured.
(§2) In order to measure changes in the concentration of an intracellular signal transduction substance in cells constituting the organs, a transgenic mouse prepared by integrated an apoaequorin gene expression vector into a chromosome was used. Specifically, a female mouse derived from the transgenic mouse disclosed in Reference Example 4 as an individual number 98075-04-6 was used in the test. The transgenic mouse was prepared and reared as an SPF animal in a clean room, and was not contaminated with pathogens including mouse hepatitis virus, Sendai virus, mycoplasma and Tyzzer bacterium.
(§3) Aequorin is a bioluminescent protein complex which is present in the umbrella region of luminescent Aequorea victoria. Aequorin is constituted from its protein moiety apoaequorin, its luminescence substrate coelent razin and molecular oxygen, and emits light by its binding with calcium ion. Since expression of the apoaequorin protein has been confirmed in at least thymus, spleen, abdominal muscle, diaphragm, kidney, crystalline lens, pancreas, fat tissue, liver, skull, blood vessel, ovary, womb and adrenal gland of the transgenic mouse used in the test, it was able to monitor changes in the intracellular calcium ion concentration in these organs with a high sensitivity.
(§4) Organs were prepared from offsprings borne from the female of individual number 98075-04-6 to examine the activities of the peptides produced in Example 1. After the offsprings were killed, the thymus, spleen, abdominal muscle, diaphragm, kidney, crystalline lens, pancreas, fat tissue, liver, skull, blood vessel, ovary, womb and adrenal gland were excised. Each of the excised organs was cut into small cubes of about 1 to 2 mm square in PBS containing 10 units/ml of heparin sodium and thoroughly washed by changing the solution. Next, three pieces of each of the organ samples thus prepared were put into a 5 ml capacity tube (Rohren-Tubes; No. 55.476, manufactured by Sarstedt) which had been charged with RPMI 1640 medium containing 200 μl of 10 μmol/l coelenterazine (manufactured by Molecular Probes), and cultured at 37° C. for 5 hours. Five hours after, various substances shown below dissolved in RPMI 1640 medium were added at 200 μl, and the luminescence was measured just after the addition at 1 second intervals using a luminometer AutoLumat LB953 (manufactured by BERTHOLD).

[3] = test system: spleen of an apoaequorin transgenic mouse; experiment: Intracellular calcium (aequorin luminescence) in spleen pieces of apoaequorin transgenic mouse
Description: as §1, §2, §3, §4
Organs were prepared from offsprings borne from the female of individual number 98075-04-6 to examine the activities of the peptides produced in Example 1. After the offsprings were killed, the spleen was excised. The excised spleen was cut into small cubes of about 1 to 2 mm square in PBS containing 10 units/ml of heparin sodium and thoroughly washed by changing the solution. Next, three pieces of the prepared spleen sample were put into a 5 ml capacity tube (Rohren-Tubes; No. 55.476, manufactured by Sarstedt) which had been charged with RPMI 1640 medium containing 200 μl of 10 μmol/l coelenterazine (manufactured by Molecular Probes), and cultured at 37° C. for 5 hours. Five hours after, various substances shown below dissolved in RPMI 1640 medium were added at 200 μl, and the luminescence was measured just after the addition at 1 second intervals using a luminometer AutoLumat LB953 (manufactured by BERTHOLD).
RPMI 1640, a peptide prepared in Example 1 (final concentration: 10 nmol/l), a peptide prepared in Example 1 (final concentration: 100 nmol/l), a peptide prepared in Example 1 (final concentration: 1 μmol/l), a peptide prepared in Example 1 (final concentration; 10 μmol/l), ATP (final concentration: 100 μmol/l), A23187 (final concentration: 1 μmol/l) and Triton X-100 (final concentration: 2%) were added in order. […]

[4] = test system: womb of an apoaequorin transgenic mouse; experiment: Intracellular calcium (aequorin luminescence) in womb pieces of apoaequorin transgenic mouse; conditions: final concentration 1 μmol/l
Description: as §1
(§5) In order to measure changes in the concentration of an intracellular signal transduction substance in cells constituting the organs, a transgenic mouse prepared by integrated an apoaequorin gene expression vector into a chromosome was used. Specifically, a female mouse derived from the transgenic mouse disclosed in Reference Example 4 as an individual number 98075-04-6 was used in the test. […]
(§6) Aequorin is a bioluminescent protein complex which is present in the umbrella region of luminescent Aequorea victoria. Aequorin is constituted from its protein moiety apoaequorin, its luminescence substrate coelent razin and molecular oxygen, and emits light by its binding with calcium ion. […]
(§7) Organs were prepared from offsprings borne from the female of individual number 98075-04-6 to examine the activities of the peptides produced in Example 1. […] Five hours after, various substances shown below dissolved in RPMI 1640 medium were added at 200 μl, and the luminescence was measured just after the addition at 1 second intervals using a luminometer AutoLumat LB953 (manufactured by BERTHOLD).

[5] = test system: adrenal gland of an apoaequorin transgenic mouse; experiment: Intracellular calcium (aequorin luminescence) in adrenal gland pieces of apoaequorin transgenic mouse; conditions: final concentration 1 μmol/l
Description: as §1, §5, §6, §7

[6] = test system: blood vessel of an apoaequorin transgenic mouse; experiment: Intracellular calcium (aequorin luminescence) in blood vessel pieces of apoaequorin transgenic mouse; conditions: final concentration 1 μmol/l
Description: as §1, §2, §3, §4

Question: What does the source list for “H-Met-Met-Glu-Lys-Leu-Gly-Val-Pro-Lys-Thr-His-Leu-Glu-Met-Lys-Lys-Met-Ile-Ser-Glu-Val-Thr-Gly-Gly-Val-Ser-Asp-Thr-Ile-Ser-Tyr-Arg-Asp-Phe-Val-Asn-Met-Met-Leu-NH2 (H-MMEKLGVPKTHLEMKKMISEVTGGVSDTISYRDFVNMML-NH2) [Peptide 3]”?
Answer: luminescence (intracellular calcium increase) [1]: Strong luminescence; luminescence (intracellular calcium increase) [2]: Strong luminescence; final concentration from which concentration-dependent luminescence was observed ([3]; 10 nmol/l, 100 nmol/l, 1 μmol/l, 10 μmol/l added in order): 1 µmol/L; luminescence (intracellular calcium increase) ([3]; final concentration 10 μmol/l): Strong luminescence

Question: With “angiotensin II [purchased from Research Biochemicals International (product code: A-151)]” as the substance, how does the “luminescence (intracellular calcium increase)” value [4] read?
Answer: Strong luminescence

Question: And the “luminescence (intracellular calcium increase)” value [5]?
Answer: Strong luminescence

Question: What about the “luminescence (intracellular calcium increase)” value [6] of the same substance?
Answer: Strong luminescence
